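Cultured in 96-well plates, cells were exposed to test compound for 48 hours across five concentrations. Abbreviation: GI50, concentration required for 50% inhibition of growth.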 Calls of active or inactive are those of the source. No stated cut-off is given here; in the data, active = GI50 up to about 1.1 µM and inactive = higher.
Legend:
Experiment in all cases: inhibition of tumour cell growth, NCI panel, 48 h
IGROV-1 = tested on: IGROV-1
M14 = tested on: M14
SK-OV-3 = tested on: SK-OV-3
HT-29 = tested on: HT-29
SK-MEL-5 = tested on: SK-MEL-5
SNB-19 = tested on: SNB-19
OVCAR-3 = tested on: OVCAR-3
RXF 393 = tested on: RXF 393
SR = tested on: SR
OVCAR-4 = tested on: OVCAR-4
RPMI-8226 = tested on: RPMI-8226
KM12 = tested on: KM12
TK-10 = tested on: TK-10
CCRF-CEM = tested on: CCRF-CEM
SF-268 = tested on: SF-268
A498 = tested on: A498
MDA-MB-435 = tested on: MDA-MB-435
SF-539 = tested on: SF-539
OVCAR-8 = tested on: OVCAR-8
PC-3 = tested on: PC-3

| Structure (SMILES) | GI50 (IGROV-1) | GI50 (M14) | GI50 (SK-OV-3) | GI50 (HT-29) | GI50 (SK-MEL-5) | GI50 (SNB-19) | GI50 (OVCAR-3) | GI50 (RXF 393) | GI50 (SR) | GI50 (OVCAR-4) | GI50 (RPMI-8226) | GI50 (KM12) | GI50 (TK-10) | GI50 (CCRF-CEM) | GI50 (SF-268) | GI50 (A498) | GI50 (MDA-MB-435) | GI50 (SF-539) | GI50 (OVCAR-8) | GI50 (PC-3) |
| --- | --- | --- | --- | --- | --- | --- | --- | --- | --- | --- | --- | --- | --- | --- | --- | --- | --- | --- | --- | --- |
| O=[N+]([O-])c1ccc(C[S+]([O-])Cc2ccccc2)cc1 (stereo not given) | > 100 µM (inactive) | > 100 µM (inactive) | > 100 µM (inactive) | > 100 µM (inactive) | > 100 µM (inactive) | > 100 µM (inactive) | > 100 µM (inactive) | > 100 µM (inactive) | > 100 µM (inactive) | > 100 µM (inactive) | > 100 µM (inactive) | > 100 µM (inactive) | > 100 µM (inactive) | > 100 µM (inactive) | > 100 µM (inactive) | > 100 µM (inactive) | > 100 µM (inactive) | > 100 µM (inactive) | > 100 µM (inactive) | > 100 µM (inactive) |
| CCOC(=O)/C(C(=O)c1ccc([N+](=O)[O-])cc1)=C(\NS(=O)(=O)c1cc(C)c(Cl)cc1[S-])[n+]1ccc(N(C)C)cc1 | 45.3 µM (inactive) | 31.1 µM (inactive) | 25.8 µM (inactive) | 24 µM (inactive) | 42.8 µM (inactive) |  | 32.3 µM (inactive) | 64.1 µM (inactive) | 31.6 µM (inactive) | 32.9 µM (inactive) | 28.1 µM (inactive) | 27.4 µM (inactive) | 18.7 µM (inactive) | 31.4 µM (inactive) | 37.1 µM (inactive) | 21.4 µM (inactive) | 32.8 µM (inactive) | 21.5 µM (inactive) | 38.9 µM (inactive) | 16.7 µM (inactive) |
| COc1ccccc1NC(=O)CC(=O)N1N=C(C)C(/N=N/c2ccc(C(=O)O)cc2)C1=O (stereo not given) | > 100 µM (inactive) | > 100 µM (inactive) |  | 23.8 µM (inactive) | > 100 µM (inactive) | > 100 µM (inactive) | > 100 µM (inactive) | > 100 µM (inactive) | > 100 µM (inactive) | > 100 µM (inactive) | > 100 µM (inactive) | > 100 µM (inactive) | > 100 µM (inactive) | > 100 µM (inactive) | > 100 µM (inactive) | > 100 µM (inactive) | > 100 µM (inactive) | > 100 µM (inactive) | > 100 µM (inactive) | > 100 µM (inactive) |
| O=C(N(O)c1ccccc1Cl)C(O)(c1ccccc1)c1ccccc1 | 78.9 µM (inactive) | 54.1 µM (inactive) | > 100 µM (inactive) | 85.7 µM (inactive) | 50.6 µM (inactive) | > 100 µM (inactive) | 43.5 µM (inactive) | 51.2 µM (inactive) | 18.1 µM (inactive) | > 100 µM (inactive) | 23.8 µM (inactive) | 36.1 µM (inactive) | 62.4 µM (inactive) | 15.4 µM (inactive) | > 100 µM (inactive) | > 100 µM (inactive) | 65.2 µM (inactive) | > 100 µM (inactive) | 76.2 µM (inactive) | 91.6 µM (inactive) |
| CCC(=O)Nc1cccc(NC(=O)c2c(Cl)c(Cl)c(Cl)c(Cl)c2-c2nc3ccccc3[nH]2)c1 | 14.2 µM (inactive) | 29 µM (inactive) |  | 66.2 µM (inactive) | > 100 µM (inactive) | 1.03 µM (active) | > 100 µM (inactive) | 21.6 µM (inactive) | 17.6 µM (inactive) | 71.6 µM (inactive) | 8.02 µM (inactive) | 0.0968 µM (active) |  | 7.45 µM (inactive) | 79.4 µM (inactive) | > 100 µM (inactive) | 32.4 µM (inactive) | > 100 µM (inactive) | > 100 µM (inactive) | 44.8 µM (inactive) |
| Cc1cc(CCC(=O)NCCNc2c3ccccc3nc3ccccc23)cc(C)c1O[Si](C)(C)C(C)(C)C | 1.76 µM (inactive) | 1.66 µM (inactive) | 1.61 µM (inactive) | 0.446 µM (active) |  | 1.85 µM (inactive) | 1.96 µM (inactive) | 1.5 µM (inactive) | 0.214 µM (active) | 1.32 µM (inactive) | 0.331 µM (active) | 0.366 µM (active) | 1.63 µM (inactive) | 0.38 µM (active) |  | 0.525 µM (active) | 0.3 µM (active) | 0.194 µM (active) | 1.47 µM (inactive) | 1.55 µM (inactive) |
| OC(C/C(=N\N1CCCCC1)c1cccs1)(C(F)(F)F)C(F)(F)F | > 10 µM (inactive) | > 10 µM (inactive) | > 10 µM (inactive) | > 10 µM (inactive) | > 10 µM (inactive) | > 10 µM (inactive) | > 10 µM (inactive) | > 10 µM (inactive) | > 10 µM (inactive) | > 10 µM (inactive) | > 10 µM (inactive) | > 10 µM (inactive) | > 10 µM (inactive) | > 10 µM (inactive) | > 10 µM (inactive) | > 10 µM (inactive) | > 10 µM (inactive) | > 10 µM (inactive) | > 10 µM (inactive) | > 10 µM (inactive) |
| COc1ccc2c(=O)c3ccoc3[nH]c2c1 | > 100 µM (inactive) | > 100 µM (inactive) | > 100 µM (inactive) | > 100 µM (inactive) | > 100 µM (inactive) | > 100 µM (inactive) |  | > 100 µM (inactive) | > 100 µM (inactive) | > 100 µM (inactive) | > 100 µM (inactive) | > 100 µM (inactive) | > 100 µM (inactive) | > 100 µM (inactive) | > 100 µM (inactive) | > 100 µM (inactive) | > 100 µM (inactive) | > 100 µM (inactive) | > 100 µM (inactive) | > 100 µM (inactive) |
| O=C(CCCN1CCC2(CC1)CC(=O)N(N1CCCCCC1)C2=O)c1ccccc1 | > 100 µM (inactive) | > 100 µM (inactive) | > 100 µM (inactive) | 67.1 µM (inactive) | > 100 µM (inactive) | > 100 µM (inactive) | > 100 µM (inactive) | > 100 µM (inactive) | 14.2 µM (inactive) | > 100 µM (inactive) | > 100 µM (inactive) |  | > 100 µM (inactive) | > 100 µM (inactive) | > 100 µM (inactive) | > 100 µM (inactive) | > 100 µM (inactive) | > 100 µM (inactive) | > 100 µM (inactive) | > 100 µM (inactive) |
| CC(=S)NC1C(Oc2ccc3c(C)cc(=O)oc3c2)OC(CO)C(O)C1O (stereo not given) | > 100 µM (inactive) |  | > 100 µM (inactive) | > 100 µM (inactive) | > 100 µM (inactive) | > 100 µM (inactive) | > 100 µM (inactive) | > 100 µM (inactive) | > 100 µM (inactive) | > 100 µM (inactive) | > 100 µM (inactive) | > 100 µM (inactive) | > 100 µM (inactive) | > 100 µM (inactive) |  | > 100 µM (inactive) | > 100 µM (inactive) | > 100 µM (inactive) | > 100 µM (inactive) | > 100 µM (inactive) |
| CC1=NN2C(=N)/C(=C/c3ccccc3)C(=O)N=C2S1 | > 100 µM (inactive) | > 100 µM (inactive) | > 100 µM (inactive) | > 100 µM (inactive) | > 100 µM (inactive) | > 100 µM (inactive) | > 100 µM (inactive) | > 100 µM (inactive) | > 100 µM (inactive) | > 100 µM (inactive) | > 100 µM (inactive) | > 100 µM (inactive) | > 100 µM (inactive) | > 100 µM (inactive) | > 100 µM (inactive) | > 100 µM (inactive) | > 100 µM (inactive) | > 100 µM (inactive) | > 100 µM (inactive) | > 100 µM (inactive) |
| [N-]=[N+]=NC1C(O)C(CO)OC1n1cnc2c(N)ncnc21 (stereo not given) | 92.7 µM (inactive) | 36.6 µM (inactive) | 87.5 µM (inactive) | 31 µM (inactive) | > 100 µM (inactive) | 59.4 µM (inactive) | > 100 µM (inactive) | 66.2 µM (inactive) | 1.67 µM (inactive) | > 100 µM (inactive) | 45.8 µM (inactive) | 74.3 µM (inactive) | > 100 µM (inactive) | 10.1 µM (inactive) | 51.1 µM (inactive) | 66.8 µM (inactive) | 82.6 µM (inactive) | 27.9 µM (inactive) | 37.9 µM (inactive) | 74.3 µM (inactive) |
| Cc1ccc(NCCN(C)C)c2c(=O)c3cc(O)ccc3oc12 | 12.3 µM (inactive) | 12.4 µM (inactive) | 13.4 µM (inactive) | 11.2 µM (inactive) | 11.6 µM (inactive) | 11.3 µM (inactive) | 16.5 µM (inactive) | 11.9 µM (inactive) | 0.083 µM (active) | 17 µM (inactive) | 5.08 µM (inactive) | 11.2 µM (inactive) | 14.6 µM (inactive) | 2.28 µM (inactive) | 5.35 µM (inactive) | 14.9 µM (inactive) | 12 µM (inactive) | 8.28 µM (inactive) | 6.97 µM (inactive) | 11.8 µM (inactive) |
| OC1CC2CCC(C1)N2CCCN1c2ccccc2Sc2ccc(Cl)cc21 (stereo not given) | 1.98 µM (inactive) | 1.81 µM (inactive) | 3.37 µM (inactive) | 1.67 µM (inactive) | 1.73 µM (inactive) | 3.88 µM (inactive) | 2.67 µM (inactive) | 1.74 µM (inactive) | 2.2 µM (inactive) | 3.69 µM (inactive) | 1.87 µM (inactive) | 1.95 µM (inactive) | 1.66 µM (inactive) | 1.94 µM (inactive) | 2.37 µM (inactive) | 1.84 µM (inactive) | 1.73 µM (inactive) | 1.84 µM (inactive) | 2.11 µM (inactive) | 2.12 µM (inactive) |
